Like-named read-outs stand apart in the source and are kept apart here.
Tests used:
[1] = target: T1, PI3Kγ (Homo sapiens, UniProt P48736); assay: PI3Kγ inhibitory activity (PI3-kinase HTRF assay, inhibition ratio); type: biochemical; conditions: compound at 10 μmol/L; for inhibition at 10 µM: 0.5 h, read-out: PI3Kg Inhibition Ratio % (10 μM)
In short: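 Compound at 10 μmol/L preincubated 10 min with PI3Kγ and PIP2 substrate, then reacted with ATP for 30 minutes at room temperature; the compound, substrate and ATP figures as printed (40 μmol/L each) are solution concentrations. HTRF 665/620 nm ratio read after 18 hours. Inhibition ratio calculated against no-compound (100%) and no-enzyme (0%) controls.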

[2] = tested on: AKT phosphorylation; assay: AKT phosphorylation inhibitory activity in MCP-1 stimulated THP-1 cells (sandwich ELISA); type: cell-based, Human; conditions: compound at 1 μmol/L, MCP-1 stimulation; for inhibition at 1 µM: Homo sapiens, read-out: AKT phosphorylation inhibition ratio
In short: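 THP-1 cells (6.7×10^6/mL in HBSS) were preincubated with compound at 1 μmol/L for 5 min at 37 °C, then stimulated for 60 s with HBSS containing 1.2 μg/mL MCP-1 and lysed. Phospho-Akt Ser473/AKT1 sandwich ELISA was read at A450. % inhibition: no compound = 100% activity, no MCP-1 = 0%.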

[3] = target: T1, PI3Kγ; assay: PI3Kγ inhibitory activity (Ki value); type: biochemical
In short: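 Ki derived from IC50 measured at final compound levels of 50–0.05 μmol/L (HTRF read-out; 40 μmol/L ATP, 10 mmol/L MgCl2, 5 mmol/L DTT), IC50 by logistic or two-point linear fit. ATP Km from Lineweaver-Burk over 0.625–80 μmol/L ATP; Ki = IC50/(1+[ATP]/Km).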

[4] = target: PI3Kβ (Homo sapiens, UniProt P42338); assay: PI3Kβ inhibitory activity (Ki value); type: biochemical
Method: According to Example 2 above, after 80 μg/mL PI-3 kinase γ of the enzyme solution (80 μg/mL PI-3 kinase γ, 10 mmol/L MgCl2, 5 mmol/L DTT) was changed to 60 μg/mL PI-3 kinase β, a method similar to the method for measuring PI3Kγ inhibitory activity was used to calculate an inhibition ratio, which was defined as the PI3Kβ inhibitory activity.
According to Example 4 above, a Km value for PI3Kβ was determined to calculate a Ki value.

[5] = class symbols, read-out: PI3K γ Ki
[6] = class symbols, read-out: PI3K β Ki

T1 sequence (P48736 whole entry, species assumed): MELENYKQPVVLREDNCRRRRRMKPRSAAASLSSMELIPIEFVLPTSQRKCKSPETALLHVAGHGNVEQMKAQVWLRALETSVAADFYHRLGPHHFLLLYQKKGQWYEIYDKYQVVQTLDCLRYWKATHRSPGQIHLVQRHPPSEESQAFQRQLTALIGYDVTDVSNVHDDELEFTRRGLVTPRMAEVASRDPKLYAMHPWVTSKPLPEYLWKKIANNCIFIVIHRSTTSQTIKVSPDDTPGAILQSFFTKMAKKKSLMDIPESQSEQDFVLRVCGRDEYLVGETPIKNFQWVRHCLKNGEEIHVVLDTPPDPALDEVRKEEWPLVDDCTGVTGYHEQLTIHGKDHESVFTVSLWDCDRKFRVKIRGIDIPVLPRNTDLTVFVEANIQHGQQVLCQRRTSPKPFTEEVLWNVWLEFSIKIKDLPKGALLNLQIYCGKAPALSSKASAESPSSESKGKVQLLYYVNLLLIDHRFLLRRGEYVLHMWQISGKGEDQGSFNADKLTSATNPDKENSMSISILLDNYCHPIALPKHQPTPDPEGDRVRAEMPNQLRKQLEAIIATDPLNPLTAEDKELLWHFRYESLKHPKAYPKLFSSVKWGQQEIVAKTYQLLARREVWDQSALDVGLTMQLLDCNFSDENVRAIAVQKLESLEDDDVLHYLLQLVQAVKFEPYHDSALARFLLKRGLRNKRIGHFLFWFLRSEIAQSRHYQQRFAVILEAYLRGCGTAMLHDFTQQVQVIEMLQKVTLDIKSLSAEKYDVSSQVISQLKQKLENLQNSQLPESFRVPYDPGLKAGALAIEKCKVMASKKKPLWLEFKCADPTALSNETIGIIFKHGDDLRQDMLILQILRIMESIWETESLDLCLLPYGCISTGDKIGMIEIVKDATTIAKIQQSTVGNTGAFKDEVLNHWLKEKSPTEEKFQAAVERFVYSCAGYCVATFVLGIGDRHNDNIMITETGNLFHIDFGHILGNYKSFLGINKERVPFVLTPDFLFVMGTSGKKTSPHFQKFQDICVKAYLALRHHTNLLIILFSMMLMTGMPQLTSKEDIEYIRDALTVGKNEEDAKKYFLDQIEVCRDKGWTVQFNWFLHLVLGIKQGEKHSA
PI3Kβ, sequence (P42338 whole entry, species assumed): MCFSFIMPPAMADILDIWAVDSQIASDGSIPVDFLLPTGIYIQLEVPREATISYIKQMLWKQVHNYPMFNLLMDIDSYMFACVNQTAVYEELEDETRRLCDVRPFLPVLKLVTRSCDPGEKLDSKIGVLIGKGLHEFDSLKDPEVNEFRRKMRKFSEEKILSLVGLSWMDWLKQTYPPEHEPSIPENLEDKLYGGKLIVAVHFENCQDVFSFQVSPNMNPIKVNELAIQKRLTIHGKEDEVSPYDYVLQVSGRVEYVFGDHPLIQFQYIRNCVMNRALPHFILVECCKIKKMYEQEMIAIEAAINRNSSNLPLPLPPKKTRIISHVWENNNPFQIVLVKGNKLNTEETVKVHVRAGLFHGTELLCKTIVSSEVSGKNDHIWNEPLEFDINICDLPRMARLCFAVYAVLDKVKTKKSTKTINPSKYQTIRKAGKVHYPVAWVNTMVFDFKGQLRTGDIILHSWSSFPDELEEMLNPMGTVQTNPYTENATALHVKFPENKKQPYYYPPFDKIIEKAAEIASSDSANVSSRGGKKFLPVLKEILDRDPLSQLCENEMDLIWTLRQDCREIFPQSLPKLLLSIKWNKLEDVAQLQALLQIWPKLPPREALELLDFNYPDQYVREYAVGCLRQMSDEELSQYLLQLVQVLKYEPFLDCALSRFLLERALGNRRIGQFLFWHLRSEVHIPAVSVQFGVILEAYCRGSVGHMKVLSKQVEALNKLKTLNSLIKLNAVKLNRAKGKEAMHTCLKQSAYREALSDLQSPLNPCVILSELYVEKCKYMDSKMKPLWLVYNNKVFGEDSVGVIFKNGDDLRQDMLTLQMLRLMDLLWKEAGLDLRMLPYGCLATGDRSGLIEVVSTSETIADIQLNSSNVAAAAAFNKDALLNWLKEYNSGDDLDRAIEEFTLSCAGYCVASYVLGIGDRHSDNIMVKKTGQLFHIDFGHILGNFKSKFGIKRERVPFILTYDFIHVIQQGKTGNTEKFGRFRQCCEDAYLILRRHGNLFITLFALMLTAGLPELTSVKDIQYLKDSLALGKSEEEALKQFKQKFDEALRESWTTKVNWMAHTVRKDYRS
PI3Kβ, sequence (P27986 whole entry partner, species assumed): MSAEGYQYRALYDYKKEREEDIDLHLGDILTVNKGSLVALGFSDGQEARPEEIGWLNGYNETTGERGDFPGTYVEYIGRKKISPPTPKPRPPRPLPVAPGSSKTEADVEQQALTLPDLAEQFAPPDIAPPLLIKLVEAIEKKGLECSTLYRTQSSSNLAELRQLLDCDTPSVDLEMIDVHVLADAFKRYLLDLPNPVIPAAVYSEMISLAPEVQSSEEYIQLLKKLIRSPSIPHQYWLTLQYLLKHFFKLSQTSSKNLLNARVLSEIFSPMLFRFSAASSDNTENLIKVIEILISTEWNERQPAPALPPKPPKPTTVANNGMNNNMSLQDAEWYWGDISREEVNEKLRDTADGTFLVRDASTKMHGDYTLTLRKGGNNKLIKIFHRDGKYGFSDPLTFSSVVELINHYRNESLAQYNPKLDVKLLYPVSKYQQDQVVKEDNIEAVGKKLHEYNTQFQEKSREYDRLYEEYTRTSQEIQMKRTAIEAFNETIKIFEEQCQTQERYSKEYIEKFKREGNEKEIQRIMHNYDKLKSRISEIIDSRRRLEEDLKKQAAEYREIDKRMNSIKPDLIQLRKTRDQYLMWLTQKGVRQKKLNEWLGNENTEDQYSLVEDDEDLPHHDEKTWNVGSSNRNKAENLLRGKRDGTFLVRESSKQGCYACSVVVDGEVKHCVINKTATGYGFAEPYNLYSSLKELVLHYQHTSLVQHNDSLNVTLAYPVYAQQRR

SMILES	inhibition at 10 µM [1]	Ki [3, 5]	Ki ([3]; read-out: PI3Kγ Ki value)	Ki [4, 6]	Ki ([4]; read-out: PI3Kβ Ki value)	PI3Kg Inhibition Ratio % (10 μM) [1]	inhibition at 1 µM [2]	AKT phosphorylation inhibition ratio [2]
COc1cc(N2CCc3nc(NC(=O)Nc4ccccc4C(=O)NC(C)C)sc3C2)nc(OC)n1 [Compound I-12]	94%	≤ 0.03 µM	0.0096 µM	≤ 3 µM	0.34 µM		≥ 95%	
COc1cc(N2CCc3nc(NC(=O)Nc4ccccc4C(=O)NCCF)sc3C2)nc(OC)n1 [Compound I-88]	≥ 95%						87.3%	
COc1nc(Cl)cc(N2CCc3nc(NC(=O)Nc4cnccc4C(=O)NC(C)C)sc3C2)n1 [Compound I-91]	≥ 95%	≤ 0.003 µM	0.0014 µM	≤ 3 µM			94.7%	
COc1cncc(-c2ccc3nc(NC(=O)Nc4ccccc4OCCC(C)C)cn3n2)c1 [Compound I-114]		≤ 0.3 µM	0.033 µM	≤ 3 µM	0.66 µM		64.9%	
Cc1nc(NC(=O)Nc2ccccc2C(=O)NC(C)C)sc1-c1ccc(S(C)(=O)=O)c(F)c1 [Compound I-127]	≥ 95%	≤ 0.03 µM	0.016 µM	≤ 3 µM	0.34 µM		77.7%	
CC(C)NC(=O)c1ccccc1NC(=O)Nc1nc2c(s1)CN(c1cncc(C(F)(F)F)c1)CC2 [Compound I-131]	78%	≤ 0.003 µM	0.0008 µM	> 3 µM			84%	
COc1cc(N2CCc3nc(NC(=O)Nc4ccccc4C(=O)NC(C)C(O)C(F)(F)F)sc3C2)nc(OC)n1 (centres unmarked) [Compound I-139]						≧95%		≥ 95%
COc1cc(N2CCc3nc(NC(=O)Nc4cn(C)nc4C(=O)NCC(F)(F)F)sc3C2)nc(OC)n1 [Compound I-148]	90%	≤ 0.03 µM	0.0055 µM	≤ 0.3 µM			≥ 95%	
Cc1nc(NC(=O)Nc2ccccc2C(=O)NC(C)C)sc1-c1csc(S(=O)(=O)N(C)CCN(C)C)c1 [Compound I-191]	87%		0.3 µM				93%	

The next lines start with results.

inhibition at 10 µM [1]	Ki [3, 5]	Ki ([3]; read-out: PI3Kγ Ki value)	Ki [4, 6]	Ki ([4]; read-out: PI3Kβ Ki value)	PI3Kg Inhibition Ratio % (10 μM) [1]	SMILES	inhibition at 1 µM [2]	AKT phosphorylation inhibition ratio [2]
≥ 95%						COc1cc(N2CCc3nc(NC(=O)Nc4ccccc4C(=O)NN4CCN(C)CC4)sc3C2)nc(OC)n1 [Compound I-195]	82%	
≥ 95%	≤ 0.003 µM	0.0023 µM	> 3 µM			COc1nc(Cl)cc(N2CCc3nc(NC(=O)Nc4ccccc4C(=O)NC4CCCOC4)sc3C2)n1 (centres unmarked) [Compound I-197]	90%	
≥ 95%						CC(C)NC(=O)c1ccccc1NC(=O)Nc1nc2c(s1)CN(c1cccc(S(C)(=O)=O)c1)CC2 [Compound I-198]	94%	
91%						COc1cc(N2CCc3nc(NC(=O)Nc4ccccc4C(=O)NC4CCOCC4)sc3C2)nc(OC)n1 [Compound I-203]	≥ 95%	
87%						C[C@@H](CO)NC(=O)c1ccccc1NC(=O)Nc1nc2c(s1)CN(c1cncc(S(C)(=O)=O)c1)CC2 [Compound I-211]	85%	
93%	≤ 3 µM	0.83 µM	> 3 µM			COc1cncc(-c2cc(NC(=O)Nc3ccccc3C(=O)NC(C)C)nn2C)c1 [Compound I-226]		

Source: patent US20120071475A1, “UREA DERIVATIVES HAVING PI3K-INHIBITING ACTIVITY” (SHIONOGI & CO., LTD., priority 2009, published 2012)
